Source: publication PMC8624998, “Synthesis and Antiproliferative Evaluation of 3-Chloroazetidin-2-ones with Antimitotic Activity: Heterocyclic Bridged Analogues of Combretastatin A-4” (Pharmaceuticals, 2021)
Like-named read-outs stand apart in the source and are kept apart here.

Tested on: MDA-MB-231 cells
Assay: Cell viability assay, antiproliferative activity
Format: cell-based
Settings: Homo sapiens, MDA-MB-231, 72 h, read-out: Antiproliferative Activity IC50 MDA-MB-231, 72 h
Source text: Selected β-lactam compounds were next evaluated in the triple negative cell line MDA-MB-231 (Table 4). […] These cancers are difficult to treat since they are generally not responsive to hormone therapies such as the selective oestrogen receptor modulator (SERM) tamoxifen, or aromatase inhibitors such as anastrozole, or to the monoclonal antibody Herceptin, which targets the HER2 receptor. There are fewer treatment options available for TNBC compared with ER+, PR+ and HER2+ breast cancers and the prognosis is poorer. […]. The human breast carcinoma cell line MCF-7 was purchased from the European Collection of Animal Cell Cultures (ECACC). Triple negative breast cancer Hs578T cells and its invasive variant Hs578Ts(i)8 were a kind gift from Dr. Susan McDonnell, School of Chemical and Bioprocess Engineering, University College Dublin. U266 cells were a gift from Dr. Tony McElligott, School of Medicine, St James’s Hospital, Trinity College Dublin. HT-29 cells were purchased from the European Collection of Cell Cultures (originating from a human adenocarcinoma of the colon). The human breast carcinoma cell line MDA-MB-231 and the HL-60 cells derived from a patient with acute myeloid leukaemia were both obtained from ECACC (Salisbury, UK). The SW-480 cells were a kind gift from Dr. Brian Flood, School of Biochemistry and Immunology, Trinity College Dublin. HEK-293T (normal epithelial embryonic kidney cells) were cultured in Dulbecco’s Modified Eagle’s Medium (DMEM) with GlutaMAXTM-I in the absence of non-essential amino acids. Human breast cancer MCF-7 cells and multiple myeloma U266 cells were cultured in Minimum Essential Media (MEM) with GlutaMAX™-I, supplemented with 1% (v/v) non-essential amino acids, 10% 2(v/v) foetal bovine serum (FBS) and 1% (v/v) penicillin/streptomycin 5000 U/mL. MDA-MB-231 cells were maintained in DMEM supplemented with 10% (v/v) foetal bovine serum, 2 mM L-glutamine and 100 μg/mL penicillin/streptomycin (complete medium). Colon cancer HT-29 and SW-480 and triple negative breast cancer Hs578T and its invasive variant Hs578T8i were cultured in DMEM with GlutaMAX™-I, with the same supplement in the absence of non-essential amino acids. Leukaemia HL-60 cancer cells were cultured in Roswell Park Memorial Institute Media (RPMI-1640) with GlutaMAX™-I, supplemented with 10% FCS media, and 100 μg/mL penicillin/streptomycin as above. Cell numbers were monitored using a haemocytometer. Cell culture flasks were incubated in a humidified incubator (5% CO2/95% air) at 37 °C. All cell lines were sub-cultured three times per week with trypsinisation using TrypLE Express (1X) required for adherent cell lines.
. All stock solutions and serial dilution in ethanol/DMSO were stored at -20 °C. All cells were seeded at a density of 2.5 × 10^4 cells/mL in a 96-well plate (200 μL per well). The cells were incubated in a […] atmosphere at 37 °C for 24 h, then treated with test compound (2 μL of stock solutions per 200-microlitre well) in ethanol to obtain a concentration range of 1 nM–200 μM for the study. The plates were then re-incubated for a further 72 h. Control wells contained an equivalent volume of the vehicle ethanol or DMSO (1% v/v). MTT cell viability assay: The culture medium was removed, and the cells were washed with phosphate buffered saline (PBS, […]). MTT (dissolved in PBS, […]) was added to obtain a final concentration of MTT (1 mg/mL). Cells were incubated at 37 °C for 3 h in the dark. Solubilisation was commenced by the addition of DMSO ([…]) and the cells were maintained at 20 °C in the dark for 20 min before reading the absorbance to ensure complete colour diffusion. The absorbance value of control cells (no added compound) was set to 100% cell viability and absorbance versus cell density per well was determined to assess cell viability using Graph-Pad Prism software. […]

SMILES: COc1ccc([C@H]2[C@H](Cl)C(=O)N2c2cc(OC)c(OC)c(OC)c2)cc1 (relative stereo) [Compound 10e trans, Trans-3-chloro-1-(3,4,5-trimethoxyphenyl)-4-(4-methoxyphenyl) azetidin-2-one]
- IC50 (10e and 11n results from NCI): 68.6 nM

SMILES: COc1ccc(/C=C\c2cc(OC)c(OC)c(OC)c2)cc1O [CA-4, Combretastatin A-4]
- IC50 (10e and 11n results from NCI): 43 nM

SMILES: COc1ccc(C2N(c3cc(OC)c(OC)c(OC)c3)C(=O)C2(Cl)Cl)cc1O (stereo not drawn) [Compound 11n, 3,3-Dichloro-4-(3-hydroxy-4-methoxyphenyl)-1-(3,4,5-trimethoxyphenyl)azetidin-2-one]
- IC50: 31.6 nM
